Source: PubChem BioAssay AID248 (DTP/NCI, 2004)
“And” between values parts separate entries of the source, which are not always exact repeats. Equal values may be shown once. Inconclusive results and toxic doses are left out. Cut-off read from the data, not from the text of the source: active = T/C of 150% or more; inactive = T/C below 125%.

Tested on: L1210 leukemia ip in BDF1 mice, survival T/C
Assay: NCI In Vivo Anticancer Drug Screen. Data for tumor model L1210 Leukemia (intraperitoneal) in B6D2F1 (BDF1) mice
Settings: endpoint: mean survival time, higher = longer survival
How it was run: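 Read-out is survival time, reported as the treated-group measurement over the vehicle-control measurement.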

[1] = dose: 50.0 mg/kg/injection, schedule: Q01DX001 (ip), vehicle: Klucel (hydroxypropylcellulose) (HPC)
[2] = dose: 100.0 mg/kg/injection, schedule: Q01DX001 (ip), vehicle: Klucel (hydroxypropylcellulose) (HPC)
[3] = dose: 100.0 mg/kg/injection, schedule: Q01DX009 (ip), vehicle: Klucel (hydroxypropylcellulose) (HPC)
[4] = dose: 200.0 mg/kg/injection, schedule: Q01DX001 (ip), vehicle: Klucel (hydroxypropylcellulose) (HPC)
[5] = dose: 200.0 mg/kg/injection, schedule: Q01DX009 (ip), vehicle: Klucel (hydroxypropylcellulose) (HPC)
[6] = dose: 100.0 mg/kg/injection, schedule: Q01DX001 (ip), vehicle: saline
[7] = dose: 200.0 mg/kg/injection, schedule: Q01DX001 (ip), vehicle: saline
[8] = dose: 400.0 mg/kg/injection, schedule: Q01DX001 (ip), vehicle: saline
[9] = dose: 100.0 mg/kg/injection, schedule: Q04DX003 (ip), vehicle: saline
[10] = dose: 200.0 mg/kg/injection, schedule: Q04DX003 (ip), vehicle: saline
[11] = dose: 400.0 mg/kg/injection, schedule: Q04DX003 (ip), vehicle: saline
[12] = dose: 100.0 mg/kg/injection, schedule: Q01DX001 (ip), vehicle: carboxymethylcellulose (CMC)
[13] = dose: 200.0 mg/kg/injection, schedule: Q01DX001 (ip), vehicle: carboxymethylcellulose (CMC)
[14] = dose: 400.0 mg/kg/injection, schedule: Q01DX001 (ip), vehicle: carboxymethylcellulose (CMC)

Measured: T/C

C1=Cc2c3c(c4c(c2C1)C=CC4)CC=C3
inactive: dose: 25.0 mg/kg/injection, schedule: Q01DX001 (ip), vehicle: Klucel (hydroxypropylcellulose) (HPC) 93 % of control | [1] 97 % of control | [2] 101 % of control | [3] 95 % of control | [4] 92 % of control | [5] 88 % of control | dose: 400.0 mg/kg/injection, schedule: Q01DX001 (ip), vehicle: Klucel (hydroxypropylcellulose) (HPC) 93 % of control | dose: 400.0 mg/kg/injection, schedule: Q01DX009 (ip), vehicle: Klucel (hydroxypropylcellulose) (HPC) 95 % of control

O=C(NC(C(=O)O)c1ccccc1)OCc1ccccc1 (centres undefined)
inactive: dose: 100.0 mg/kg/injection, schedule: Q01DX009 (ip), vehicle: saline with Tween-80 111 % of control and 97 % of control | dose: 200.0 mg/kg/injection, schedule: Q01DX009 (ip), vehicle: saline with Tween-80 91 % of control and 92 % of control | dose: 400.0 mg/kg/injection, schedule: Q01DX009 (ip), vehicle: saline with Tween-80 89 % of control and 93 % of control

O=c1c2c(c(=O)c(=O)c1=O)Nc1ccccc1N2
inactive: [6] 98 % of control | [7] 104 % of control | [8] 98 % of control

Cc1c[n+]2ccc3ccccc3c2c2ccccc12
inactive: dose: 1.0 mg/kg/injection, schedule: Q01DX015 (ip), vehicle: carboxymethylcellulose (CMC) 100 % of control | dose: 1.25 mg/kg/injection, schedule: Q01DX009 (ip), vehicle: saline 94 % of control | dose: 2.0 mg/kg/injection, schedule: Q01DX015 (ip), vehicle: carboxymethylcellulose (CMC) 105 % of control | dose: 2.5 mg/kg/injection, schedule: Q01DX009 (ip), vehicle: saline 95 % of control | dose: 2.5 mg/kg/injection, schedule: Q04DX003 (ip), vehicle: acetone 103 % of control | dose: 4.0 mg/kg/injection, schedule: Q01DX015 (ip), vehicle: carboxymethylcellulose (CMC) 117 % of control | dose: 5.0 mg/kg/injection, schedule: Q01DX001 (ip), vehicle: acetone 106 % of control | dose: 5.0 mg/kg/injection, schedule: Q01DX009 (ip), vehicle: saline 113 % of control | dose: 5.0 mg/kg/injection, schedule: Q04DX003 (ip), vehicle: acetone 101 % of control | dose: 7.0 mg/kg/injection, schedule: Q01DX009 (ip), vehicle: saline 113 % of control | dose: 8.0 mg/kg/injection, schedule: Q01DX015 (ip), vehicle: carboxymethylcellulose (CMC) 112 % of control | dose: 10.0 mg/kg/injection, schedule: Q01DX001 (ip), vehicle: acetone 117 % of control

CCCCNC(=O)C1C2CC3OC(=O)C1C3C2 (centres undefined)
inactive: dose: 12.5 mg/kg/injection, schedule: Q04DX003 (ip), vehicle: saline 89 % of control | dose: 25.0 mg/kg/injection, schedule: Q04DX003 (ip), vehicle: saline 95 % of control | dose: 50.0 mg/kg/injection, schedule: Q04DX003 (ip), vehicle: saline 100 % of control | [9] 95 % of control | [10] 98 % of control | [11] 101 % of control

O=C=Nc1ccc(C(=O)c2ccccc2)cc1
inactive: dose: 20.0 mg/kg/injection, schedule: Q01DX009 (ip), vehicle: saline with Tween-80 93 % of control | dose: 40.0 mg/kg/injection, schedule: Q01DX009 (ip), vehicle: saline with Tween-80 93 % of control | dose: 80.0 mg/kg/injection, schedule: Q01DX009 (ip), vehicle: saline with Tween-80 90 % of control | dose: 160.0 mg/kg/injection, schedule: Q01DX009 (ip), vehicle: saline with Tween-80 90 % of control | dose: 320.0 mg/kg/injection, schedule: Q01DX009 (ip), vehicle: saline with Tween-80 93 % of control

COc1ccc(C2(OC)Oc3ccccc3C(=O)C2(O)OC)cc1OC (centres undefined)
inactive: dose: 50.0 mg/kg/injection, schedule: Q01DX001 (ip), vehicle: saline 105 % of control | [6] 103 % of control | [7] 100 % of control | [8] 97 % of control

O=C1C=CC(=O)N1Cc1ccc[n+](CCC[n+]2cccc(CN3C(=O)C=CC3=O)c2)c1
inactive: [12] 98 % of control | [13] 91 % of control | [14] 96 % of control

C[C@]12C=CC(=O)C=C1CC[C@@H]1[C@@H]2[C@@H](O)C[C@@]2(C)[C@H]1CC[C@]2(O)C(=O)COC(=O)CCC(=O)O
inactive: dose: 63.0 mg/kg/injection, schedule: Q01DX015 (sc), vehicle: steriod suspending solution 106 % of control | dose: 125.0 mg/kg/injection, schedule: Q01DX015 (sc), vehicle: steriod suspending solution 106 % of control | dose: 250.0 mg/kg/injection, schedule: Q01DX015 (sc), vehicle: steriod suspending solution 96 % of control | dose: 500.0 mg/kg/injection, schedule: Q01DX015 (sc), vehicle: steriod suspending solution 108 % of control and 116 % of control

CC(C)(/C=N/NC(N)=O)c1ccccc1
inactive: [1] 96 % of control | [2] 102 % of control | [4] 96 % of control

CN(CCN(CCCl)c1ccc(N)cc1)c1ccc(N)cc1
inactive: dose: 10.0 mg/kg/injection, schedule: Q04DX003 (ip), vehicle: saline 110 % of control | dose: 20.0 mg/kg/injection, schedule: Q04DX003 (ip), vehicle: saline 110 % of control | dose: 40.0 mg/kg/injection, schedule: Q04DX003 (ip), vehicle: saline 93 % of control

CCOC(=O)/C=C(\CC(=O)OCC)Nc1ccc(OC)cc1
inactive: dose: 50.0 mg/kg/injection, schedule: Q01DX009 (ip), vehicle: saline 89 % of control | dose: 100.0 mg/kg/injection, schedule: Q01DX009 (ip), vehicle: saline 91 % of control | dose: 100.0 mg/kg/injection, schedule: Q04DX003 (ip), vehicle: acetone 91 % of control | dose: 200.0 mg/kg/injection, schedule: Q04DX003 (ip), vehicle: acetone 100 % of control | dose: 400.0 mg/kg/injection, schedule: Q04DX003 (ip), vehicle: acetone 97 % of control

Cc1nc2ccccc2c(=O)n1N
inactive: [6] 111 % of control | [7] 105 % of control

CN(C)CCc1nn[nH]n1
inactive: [9] 102 % of control | [10] 97 % of control | [11] 105 % of control

CC1=NN(c2ccccc2)C(=O)C1N=Nc1ccc(S(=O)(=O)Nc2nccs2)cc1 (centres undefined)
inactive: [6] 96 % of control | [7] 91 % of control | [8] 91 % of control

COc1ccccc1NC(=O)NCCN1CCOCC1
inactive: [3] 103 % of control | [5] 95 % of control

NC(=S)N/N=C/c1cc(Br)ccc1O
inactive: [12] 100 % of control | [13] 100 % of control | [14] 105 % of control

C[CH2][Pb]([CH2]C)([CH2]C)[S]C(C)=O
inactive: dose: 1.5 mg/kg/injection, schedule: Q01DX009 (ip), vehicle: Klucel (hydroxypropylcellulose) (HPC) 89 % of control | dose: 3.0 mg/kg/injection, schedule: Q01DX009 (ip), vehicle: Klucel (hydroxypropylcellulose) (HPC) 101 % of control | dose: 12.5 mg/kg/injection, schedule: Q04DX002 (ip), vehicle: Klucel (hydroxypropylcellulose) (HPC) 102 % of control

CCCCNC(C)(C)CSSSCC(C)(C)NCCCC
inactive: dose: 6.25 mg/kg/injection, schedule: Q01DX009 (ip), vehicle: water 102 % of control | dose: 12.5 mg/kg/injection, schedule: Q01DX009 (ip), vehicle: water 92 % of control | dose: 12.5 mg/kg/injection, schedule: Q04DX003 (ip), vehicle: other 96 % of control | dose: 25.0 mg/kg/injection, schedule: Q01DX009 (ip), vehicle: water 92 % of control | dose: 25.0 mg/kg/injection, schedule: Q04DX003 (ip), vehicle: other 94 % of control | dose: 50.0 mg/kg/injection, schedule: Q01DX009 (ip), vehicle: other 106 % of control | dose: 50.0 mg/kg/injection, schedule: Q01DX009 (ip), vehicle: water 103 % of control | dose: 50.0 mg/kg/injection, schedule: Q04DX003 (ip), vehicle: other 94 % of control | dose: 100.0 mg/kg/injection, schedule: Q01DX009 (ip), vehicle: other 95 % of control

c1cc2c(c(NC3=NCCCS3)c1)CCCC2
inactive: [3] 102 % of control | dose: 100.0 mg/kg/injection, schedule: Q04DX003 (ip), vehicle: Klucel (hydroxypropylcellulose) (HPC) 97 % of control | [5] 96 % of control | dose: 200.0 mg/kg/injection, schedule: Q04DX003 (ip), vehicle: Klucel (hydroxypropylcellulose) (HPC) 95 % of control | dose: 400.0 mg/kg/injection, schedule: Q04DX003 (ip), vehicle: Klucel (hydroxypropylcellulose) (HPC) 90 % of control
